For 17 molecules, IC50 results are on record in US20240245682A1, “ALPHA-V-BETA-8 INTEGRIN INHIBITORS AND USES THEREOF” (Pliant Therapeutics, Inc., priority 2022, published 2024).

What all share (assay): AlphaScreen proximity-based integrin binding assay with TGF-b1 LAP
Settings in all cases: values given as ranges

One assay concerns the target human integrin αVβ8 (Homo sapiens, UniProt P06756+P26012). Here is the method: (§1) The biochemical potency of the disclosed compounds was determined using the AlphaScreen® (Perkin Elmer, Waltham, MA) proximity-based assay as described previously (Ullman E F et al., Luminescent oxygen channeling immunoassay: Measurement of particle binding kinetics by chemiluminescence. Proc. Natl. Acad. Sci. USA, Vol. 91, pp. 5426-5430, June 1994, herein incorporated by reference in its entirety). To gauge the potency of inhibitors of binding to each of human integrins αVβ1, αVβ6, and αVβ8, inhibitor compounds were independently incubated with one of αVβ1, αVβ6, or αVβ8, together with TGF-b1 LAP and biotinylated anti-LAP antibody plus acceptor and donor beads, following the manufacture's recommendations. The donor beads were coated with streptavidin. […] All incubations occurred at room temperatures in 50 mM Tris-HCl, pH 7.5, 0.1% BSA supplemented with 1 mM each CaCl2 and MgCl2.
(§2) The order of reagent addition was as follows:
(§3) 1. αVβ1, αVβ6, or αVβ8 integrin, test inhibitor compound, LAP, biotinylated anti-LAP antibody and acceptor beads were all added together.
(§4) 2. After 2 hours, donor beads were added. After another 30 minute incubation, samples were then read.
(§5) Integrin binding was evaluated by exciting donor beads at 680 nm, and measuring the fluorescent signal produced, between 520-620 nm, using a Biotek Instruments (Winooski, VT, USA) SynergyNeo2 multimode plate reader. Compound potency was assessed by determining inhibitor concentrations required to reduce fluorescent light output by 50%. Data analysis for IC50 determinations was carried out by nonlinear four parameter logistic regression analysis using Dotmatics ELN Software (Core Informatics Inc., Branford, Ct). […] Comp #in the Table and Examples below refers to the compound of the corresponding Example number as described in the Synthetic Examples.

For a further assay, the target named is human integrin αVβ1 (Homo sapiens, UniProt P05556+P06756). On the procedure: as §1, §2, §3, §4, §5
human integrin αVβ1, sequence (P06756 31-992 limits assumed): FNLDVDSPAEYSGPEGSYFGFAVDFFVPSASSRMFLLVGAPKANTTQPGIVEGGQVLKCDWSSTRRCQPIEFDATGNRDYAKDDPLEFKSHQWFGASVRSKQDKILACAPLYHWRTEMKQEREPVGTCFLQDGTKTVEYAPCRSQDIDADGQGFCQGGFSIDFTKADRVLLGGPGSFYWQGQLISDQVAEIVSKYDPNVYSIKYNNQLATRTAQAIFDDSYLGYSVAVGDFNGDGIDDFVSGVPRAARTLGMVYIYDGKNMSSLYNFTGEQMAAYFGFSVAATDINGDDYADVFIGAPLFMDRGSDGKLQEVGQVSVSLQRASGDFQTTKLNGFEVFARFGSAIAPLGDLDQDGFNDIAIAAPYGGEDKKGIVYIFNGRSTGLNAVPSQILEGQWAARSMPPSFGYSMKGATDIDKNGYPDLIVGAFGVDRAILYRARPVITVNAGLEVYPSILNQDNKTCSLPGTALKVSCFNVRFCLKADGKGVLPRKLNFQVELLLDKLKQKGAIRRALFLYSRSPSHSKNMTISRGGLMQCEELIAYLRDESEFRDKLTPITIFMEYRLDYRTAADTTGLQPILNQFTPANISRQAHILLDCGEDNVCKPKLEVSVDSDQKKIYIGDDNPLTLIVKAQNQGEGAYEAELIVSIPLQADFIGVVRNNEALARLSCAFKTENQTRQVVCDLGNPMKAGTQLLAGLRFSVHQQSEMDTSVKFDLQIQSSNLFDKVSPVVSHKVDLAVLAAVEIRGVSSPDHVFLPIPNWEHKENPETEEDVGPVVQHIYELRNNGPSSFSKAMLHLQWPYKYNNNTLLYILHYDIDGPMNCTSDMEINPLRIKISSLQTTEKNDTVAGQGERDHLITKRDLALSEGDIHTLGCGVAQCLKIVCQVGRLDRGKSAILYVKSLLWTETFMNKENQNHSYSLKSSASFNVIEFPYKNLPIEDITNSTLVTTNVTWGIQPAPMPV
human integrin αVβ1, sequence (P05556 21-728 limits assumed): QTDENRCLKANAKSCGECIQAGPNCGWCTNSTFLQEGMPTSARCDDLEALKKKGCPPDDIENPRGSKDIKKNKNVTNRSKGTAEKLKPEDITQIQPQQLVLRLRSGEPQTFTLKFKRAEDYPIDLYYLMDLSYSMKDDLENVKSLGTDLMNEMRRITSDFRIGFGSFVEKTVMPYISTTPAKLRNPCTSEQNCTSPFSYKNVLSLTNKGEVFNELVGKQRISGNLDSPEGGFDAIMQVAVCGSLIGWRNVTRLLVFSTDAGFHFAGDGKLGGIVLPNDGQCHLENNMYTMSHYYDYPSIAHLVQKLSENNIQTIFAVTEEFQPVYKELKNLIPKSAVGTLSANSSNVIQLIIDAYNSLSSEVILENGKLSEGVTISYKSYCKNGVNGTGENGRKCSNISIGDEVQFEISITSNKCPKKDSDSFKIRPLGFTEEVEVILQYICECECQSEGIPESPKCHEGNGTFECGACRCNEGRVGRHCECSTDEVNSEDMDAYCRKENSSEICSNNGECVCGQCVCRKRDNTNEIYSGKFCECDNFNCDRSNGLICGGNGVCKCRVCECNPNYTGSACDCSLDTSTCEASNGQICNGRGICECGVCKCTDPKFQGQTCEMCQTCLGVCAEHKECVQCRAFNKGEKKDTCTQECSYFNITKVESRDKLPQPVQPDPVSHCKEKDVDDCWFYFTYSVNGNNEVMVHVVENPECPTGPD
Another assay deals with human integrin αVβ6 (Homo sapiens, UniProt P06756+P18564). On the procedure:
as §1, §2, §3, §4, §5

human integrin αVβ8, sequence (P06756 31-992 limits assumed): as the sequence (P06756 31-992 limits assumed) above
human integrin αVβ8, sequence (P26012 43-684 limits assumed): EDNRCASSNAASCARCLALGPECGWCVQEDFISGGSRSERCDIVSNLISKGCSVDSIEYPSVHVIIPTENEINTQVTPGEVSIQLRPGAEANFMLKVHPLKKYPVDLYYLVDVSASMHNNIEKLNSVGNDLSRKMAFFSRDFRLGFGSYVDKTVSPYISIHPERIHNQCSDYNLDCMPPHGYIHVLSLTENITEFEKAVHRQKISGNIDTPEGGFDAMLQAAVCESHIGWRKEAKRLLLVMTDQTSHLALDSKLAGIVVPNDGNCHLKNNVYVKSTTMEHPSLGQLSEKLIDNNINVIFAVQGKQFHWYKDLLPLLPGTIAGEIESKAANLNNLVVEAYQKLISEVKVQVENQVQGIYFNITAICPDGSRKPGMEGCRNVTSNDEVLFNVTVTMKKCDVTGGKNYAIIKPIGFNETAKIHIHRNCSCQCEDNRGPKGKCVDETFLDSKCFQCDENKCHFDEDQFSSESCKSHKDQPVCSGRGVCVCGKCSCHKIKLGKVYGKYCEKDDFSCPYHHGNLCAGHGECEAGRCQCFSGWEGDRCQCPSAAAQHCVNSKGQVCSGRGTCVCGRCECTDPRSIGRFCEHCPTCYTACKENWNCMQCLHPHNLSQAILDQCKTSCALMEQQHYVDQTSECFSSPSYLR
human integrin αVβ6, sequence (P06756 31-992 limits assumed): as the sequence (P06756 31-992 limits assumed) above
human integrin αVβ6, sequence (P18564 22-707 limits assumed): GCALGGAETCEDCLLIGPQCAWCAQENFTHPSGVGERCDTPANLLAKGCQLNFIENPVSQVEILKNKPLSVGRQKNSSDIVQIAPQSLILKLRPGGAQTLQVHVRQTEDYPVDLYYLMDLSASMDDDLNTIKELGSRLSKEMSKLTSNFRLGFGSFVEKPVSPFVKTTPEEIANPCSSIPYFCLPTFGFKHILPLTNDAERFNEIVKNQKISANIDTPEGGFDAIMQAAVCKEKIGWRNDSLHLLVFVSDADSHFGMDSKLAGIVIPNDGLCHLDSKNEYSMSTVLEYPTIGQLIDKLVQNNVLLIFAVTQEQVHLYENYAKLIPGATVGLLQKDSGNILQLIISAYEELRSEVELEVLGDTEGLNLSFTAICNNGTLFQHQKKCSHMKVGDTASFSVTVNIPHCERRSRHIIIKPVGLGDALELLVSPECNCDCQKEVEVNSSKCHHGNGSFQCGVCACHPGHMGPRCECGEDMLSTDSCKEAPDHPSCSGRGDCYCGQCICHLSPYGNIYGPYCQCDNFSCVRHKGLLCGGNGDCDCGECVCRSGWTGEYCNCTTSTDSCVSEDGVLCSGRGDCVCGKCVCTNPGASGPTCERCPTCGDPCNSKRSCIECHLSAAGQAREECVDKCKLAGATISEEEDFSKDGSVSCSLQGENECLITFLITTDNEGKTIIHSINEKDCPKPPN

`O=C(O)[C@H](CCOCCCCc1ccc2c(n1)NCCC2)NC(=O)C1(c2c(Cl)nc[nH]c2=O)CC1` [Compound 63, N-(1-(4-chloro-6-oxo-1,6-dihydropyrimidin-5-yl)cyclopropane-1-carbonyl)-O-(4-(5,6,7,8-tetrahydro-1,8-naphthyridin-2-yl)butyl)-L-homoserine]: the half-inhibitory concentration (IC50) on human integrin αVβ8 is 50 to 150 nM; at human integrin αVβ1, 150 to 250 nM; at human integrin αVβ6, not below 500 nM.

As for `O=C(O)[C@H](CCOCCCCc1ccc2c(n1)NCCC2)NC(=O)C1(c2cn[nH]c2Cl)CC1` [Compound 74, N-(1-(5-chloro-1H-pyrazol-4-yl)cyclopropane-1-carbonyl)-O-(4-(5,6,7,8-tetrahydro-1,8-naphthyridin-2-yl)butyl)-L-homoserine], the half-maximal inhibitory concentration (IC50) at human integrin αVβ8 was less than 50 nM; at human integrin αVβ1, less than 50 nM; on human integrin αVβ6, not below 500 nM.

In the case of `O=C(O)[C@H](CCOCCCCc1ccc2c(n1)NCCC2)NC(=O)C1(c2cc(F)cnc2F)CC1` [Compound 21, N-(1-(2,5-difluoropyridin-3-yl)cyclopropane-1-carbonyl)-O-(4-(5,6,7,8-tetrahydro-1,8-naphthyridin-2-yl)butyl)-L-homoserine], the IC50 is less than 50 nM at human integrin αVβ8, less than 50 nM on human integrin αVβ1 and 150 to 250 nM on human integrin αVβ6.

On to `O=C(N[C@@H](CCOCCCCc1ccc2c(n1)NCCC2)C(=O)O)c1cnn(-c2ccccc2)c1` [Compound 98, N-(1-phenyl-1H-pyrazole-4-carbonyl)-O-(4-(5,6,7,8-tetrahydro-1,8-naphthyridin-2-yl)butyl)-L-homoserine], for which the IC50 at human integrin αVβ8 was 250 to 500 nM; on human integrin αVβ1, 50 to 150 nM; on human integrin αVβ6, more than 500 nM.

With `COc1ncc(F)cc1C1(C(=O)N[C@@H](CCOCCCCc2ccc3c(n2)NCCC3)C(=O)O)CC1` [Compound 33, N-(1-(5-fluoro-2-methoxypyridin-3-yl)cyclopropane-1-carbonyl)-O-(4-(5,6,7,8-tetrahydro-1,8-naphthyridin-2-yl)butyl)-L-homoserine], the half-inhibitory concentration (IC50) was less than 50 nM at human integrin αVβ8, less than 50 nM on human integrin αVβ1 and not below 500 nM on human integrin αVβ6.

With `O=C(O)[C@H](CCOCCCCc1ccc2c(n1)NCCC2)NC(=O)C1(c2ncccc2C(F)F)CC1` [Compound 40, N-(1-(3-(difluoromethyl)pyridin-2-yl)cyclopropane-1-carbonyl)-O-(4-(5,6,7,8-tetrahydro-1,8-naphthyridin-2-yl)butyl)-L-homoserine], the IC50 was less than 50 nM on human integrin αVβ8, less than 50 nM on human integrin αVβ1 and not below 500 nM on human integrin αVβ6.

On to `O=C(O)[C@H](CCOCCCCc1ccc2c(n1)NCCC2)NC(=O)C1(C(F)(F)F)CCN(CC(F)(F)F)CC1` [Compound 96, O-(4-(5,6,7,8-tetrahydro-1,8-naphthyridin-2-yl)butyl)-N-(1-(2,2,2-trifluoroethyl)-4-(trifluoromethyl)piperidine-4-carbonyl)-L-homoserine], for which the 50% inhibitory concentration (IC50) on human integrin αVβ8 is less than 50 nM; at human integrin αVβ1, less than 50 nM; on human integrin αVβ6, more than 500 nM.

In the case of `O=C(O)[C@H](CCOCCCCc1ccc2c(n1)NCCC2)NC(=O)C1(c2cccc(F)c2)CCOCC1` [Compound 88, N-(4-(3-fluorophenyl)tetrahydro-2H-pyran-4-carbonyl)-O-(4-(5,6,7,8-tetrahydro-1,8-naphthyridin-2-yl)butyl)-L-homoserine], the half-maximal inhibitory concentration (IC50) at human integrin αVβ8 is less than 50 nM; at human integrin αVβ1, less than 50 nM; at human integrin αVβ6 it was more than 500 nM.

Turning to `O=C(O)[C@H](CCOCCCCc1ccc2c(n1)NCCC2)NC(=O)C1(c2cccc(C(F)(F)F)c2)CCOCC1` [Compound 86, O-(4-(5,6,7,8-tetrahydro-1,8-naphthyridin-2-yl)butyl)-N-(4-(3-(trifluoromethyl)phenyl)tetrahydro-2H-pyran-4-carbonyl)-L-homoserine], the figures for the IC50 on human integrin αVβ8, on human integrin αVβ1 and on human integrin αVβ6 were less than 50 nM, less than 50 nM and more than 500 nM, respectively.

Consider `O=C(O)[C@H](CCOCCCCc1ccc2c(n1)NCCC2)NC(=O)C1(C(F)(F)F)CCCCC1` [Compound 84, O-(4-(5,6,7,8-tetrahydro-1,8-naphthyridin-2-yl)butyl)-N-(1-(trifluoromethyl)cyclohexane-1-carbonyl)-L-homoserine], for which the half-maximal inhibitory concentration (IC50) is less than 50 nM at human integrin αVβ8, less than 50 nM at human integrin αVβ1 and 250 to 500 nM on human integrin αVβ6.

As for `COc1ccc(F)c(F)c1C(C)(C)C(=O)N[C@@H](CCOCCCCc1ccc2c(n1)NCCC2)C(=O)O` [Compound 4, N-(2-(2,3-difluoro-6-methoxyphenyl)-2-methylpropanoyl)-O-(4-(5,6,7,8-tetrahydro-1,8-naphthyridin-2-yl)butyl)-L-homoserine], the IC50 at human integrin αVβ8 is 150 to 250 nM; at human integrin αVβ1, 50 to 150 nM; on human integrin αVβ6 it was not below 500 nM.

In the case of `O=C(O)[C@H](CCOCCCCc1ccc2c(n1)NCCC2)NC(=O)C1(n2cncc2C(F)F)CC1` [Compound 64, N-(1-(5-(difluoromethyl)-1H-imidazol-1-yl)cyclopropane-1-carbonyl)-O-(4-(5,6,7,8-tetrahydro-1,8-naphthyridin-2-yl)butyl)-L-homoserine], the half-maximal inhibitory concentration (IC50) on human integrin αVβ8 was 50 to 150 nM; at human integrin αVβ1 it was less than 50 nM; at human integrin αVβ6 it was not below 500 nM.

Take `Cc1cccc(C2(C(=O)N[C@@H](CCOCCCCc3ccc4c(n3)NCCC4)C(=O)O)CC2)n1` [Compound 20, N-(1-(6-methylpyridin-2-yl)cyclopropane-1-carbonyl)-O-(4-(5,6,7,8-tetrahydro-1,8-naphthyridin-2-yl)butyl)-L-homoserine]: the IC50 on human integrin αVβ8 was not below 500 nM; on human integrin αVβ1, 250 to 500 nM; at human integrin αVβ6, not below 500 nM.

In the case of `CS(=O)(=O)c1ccccc1C1(C(=O)N[C@@H](CCOCCCCc2ccc3c(n2)NCCC3)C(=O)O)CC1` [Compound 46, N-(1-(2-(methylsulfonyl)phenyl)cyclopropane-1-carbonyl)-O-(4-(5,6,7,8-tetrahydro-1,8-naphthyridin-2-yl)butyl)-L-homoserine], the 50% inhibitory concentration (IC50) on human integrin αVβ8 is 250 to 500 nM; on human integrin αVβ1, 50 to 150 nM; on human integrin αVβ6 it was not below 500 nM.

Consider `O=C(O)[C@H](CCOCCCCc1ccc2c(n1)NCCC2)NC(=O)C1(n2c(Cl)cccc2=O)CC1` [Compound 65, N-(1-(6-chloro-2-oxopyridin-1(2H)-yl)cyclopropane-1-carbonyl)-O-(4-(5,6,7,8-tetrahydro-1,8-naphthyridin-2-yl)butyl)-L-homoserine], for which the IC50 was less than 50 nM on human integrin αVβ8, less than 50 nM on human integrin αVβ1 and not below 500 nM at human integrin αVβ6.

As to `N#Cc1c[nH]nc1C1(C(=O)N[C@@H](CCOCCCCc2ccc3c(n2)NCCC3)C(=O)O)CC1` [Compound 78, N-(1-(4-cyano-1H-pyrazol-3-yl)cyclopropane-1-carbonyl)-O-(4-(5,6,7,8-tetrahydro-1,8-naphthyridin-2-yl)butyl)-L-homoserine], the figures for the 50% inhibitory concentration (IC50) on human integrin αVβ8, on human integrin αVβ1 and at human integrin αVβ6 were less than 50 nM, less than 50 nM and not below 500 nM, respectively.

As to `Cc1ncccc1C1(C(=O)N[C@@H](CCOCCCCc2ccc3c(n2)NCCC3)C(=O)O)CC1` [Compound 13, N-(1-(2-methylpyridin-3-yl)cyclopropane-1-carbonyl)-O-(4-(5,6,7,8-tetrahydro-1,8-naphthyridin-2-yl)butyl)-L-homoserine], the values for the IC50 at human integrin αVβ8, at human integrin αVβ1 and at human integrin αVβ6 were less than 50 nM, less than 50 nM and not below 500 nM, respectively.
